Results taken from the supplement of paper PMC10307832.

The cell lines below were run with CC1=CC(=C(N1C2=CC=C(C=C2)Cl)C)C(=O)CN3CCCCC3 [IU1-47] + Cc1nc(NC(=O)N2CCC[C@H]2C(N)=O)sc1-c1ccnc(C(C)(C)C(F)(F)F)c1 [Alpelisib] (partner 2 µM) (assay: relative viability (nuclei count vs DMSO), 5 days (fraction); higher = more cells survive). Conditions: first compound 8 µM.
In short: (§1)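 Relative viability equals treated-well nuclei counts divided by vehicle-well nuclei counts. Counts came from 4× images of lung cancer cell lines grown in 1536-well plates for 5 days after pin-tool dosing on the day after seeding. Dosing used one drug alone or a fixed anchor-drug dose plus five library-drug doses (not always all listed) in √10 steps, and values are medians of duplicate plates.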

| Cell Line | relative viability |
| --- | --- |
| HCC-44 | 0.78 |
| A549 | 0.642 |
| LU99A | 0.663 |
| BEN | 0.834 |
| HCC-78 | 0.294 |
| NCI-H1299 | 0.987 |
| NCI-H1563 | 0.816 |
| ABC-1 | 1.1 |

The cell lines below were run with Cc1nc(C(=O)NCC(=O)O)c(O)c2ccc(Oc3ccccc3)cc12 [FG-4592] + CC(=O)Nc1cccc(-n2c(=O)n(C3CC3)c(=O)c3c(Nc4ccc(I)cc4F)n(C)c(=O)c(C)c32)c1 [Trametinib] (partner 0.02 µM) in the same assay as above. Conditions: first compound 0.08 µM.
In short: as §1

| Cell Line | relative viability |
| --- | --- |
| NCI-H522 | 0.798 |
| NCI-H727 | 0.363 |
| NCI-H1650 | 0.604 |
| NCI-H1993 | 0.556 |
| SW 1573 | 0.611 |
| NCI-H838 | 0.497 |
| LCLC-103H | 0.713 |
| NCI-H520 | 0.594 |
| NCI-H2126 | 0.586 |
| EMC-BAC-2 | 0.939 |
| NCI-H2085 | 0.48 |
| HCC-366 | 0.326 |
| NCI-H1666 | 0.88 |
| NCI-H596 | 0.861 |
| LK-2 | 0.599 |
| NCI-H2087 | 0.224 |

| Cell Line | relative viability |
| --- | --- |
| NCI-H2342 | 0.755 |
| SK-MES-1 | 0.604 |
| H3255 | 0.6 |
| COR-L23 | 0.678 |
| COR-L 105 | 0.45 |
| LOU-NH91 | 0.807 |
| ChaGo-K-1 | 0.953 |
| NCI-H2170 | 0.874 |
| NCI-H2405 | 0.548 |
| HOP-62 | 0.399 |
| HCC-44 | 1.06 |
| LU99A | 0.548 |
| BEN | 0.916 |
| NCI-H1648 | 0.485 |
| HCC-78 | 0.719 |

Same assay, conditions: first compound 0.253 µM

| Cell Line | relative viability |
| --- | --- |
| NCI-H522 | 0.712 |
| NCI-H727 | 0.335 |
| NCI-H1650 | 0.573 |
| NCI-H1993 | 0.516 |
| SW 1573 | 0.62 |
| NCI-H838 | 0.51 |
| LCLC-103H | 0.582 |
| NCI-H520 | 0.557 |
| NCI-H2126 | 0.576 |
| EMC-BAC-2 | 0.892 |
| NCI-H2085 | 0.539 |
| HCC-366 | 0.347 |
| NCI-H1666 | 0.856 |
| NCI-H596 | 0.804 |
| LK-2 | 0.661 |
| NCI-H2087 | 0.19 |

| Cell Line | relative viability |
| --- | --- |
| NCI-H2342 | 0.841 |
| SK-MES-1 | 0.515 |
| H3255 | 0.547 |
| COR-L23 | 0.519 |
| COR-L 105 | 0.461 |
| LOU-NH91 | 0.766 |
| ChaGo-K-1 | 0.79 |
| NCI-H2170 | 0.886 |
| NCI-H2405 | 0.57 |
| HOP-62 | 0.354 |
| HCC-44 | 1.08 |
| SW 900 | 0.819 |
| LU99A | 0.467 |
| BEN | 0.913 |
| NCI-H1648 | 0.445 |

Same assay, conditions: first compound 0.8 µM

| Cell Line | relative viability |
| --- | --- |
| NCI-H727 | 0.352 |
| NCI-H1650 | 0.615 |
| SW 1573 | 0.616 |
| NCI-H838 | 0.412 |
| LCLC-103H | 0.684 |
| NCI-H520 | 0.573 |
| NCI-H2126 | 0.455 |
| NCI-H2085 | 0.718 |
| HCC-366 | 0.246 |
